From patent US11311012B1, “Bacterial control in fermentation systems” (Clean Chemistry, Inc., priority 2017, dated 2022) come the findings set out here.

Data set [1] can be described thus: ORP of oxidant solutions at pH 7. It is filed as physicochemical. The settings on record: 29 mM.
Another data set deals with yeast cells. It is filed as cell-based, Saccharomyes cerevisiae and Schizosaccharomyces pombe.
The test system of data set [2] is bacteria population in stationary phase. It is filed as cell-based.
In the next data set the test system is APB. It is filed as cell-based, bacteria.
Another data set has as its system SRB. It is filed as cell-based, bacteria.

“And” between values parts separate entries of the source, which are not always exact repeats. Identical values can stand only once.

As for `OCl` [hypochlorous acid], the ORP entry in data set [1] is recorded as “over 1.1 V (vs SHE)”.

With `OO` [hydrogen peroxide], the ORP result in data set [1] was “about 0.5 V (vs SHE)”.

`[O][Cl+][O-]` [Chlorine Dioxide, chlorine dioxide]: the “Yeast activity vs untreated mash” value in the data set with yeast cells is “greater yeast activity”.

As for `CCCCCCCCCCCC[N+](C)(C)CCCCCCCCCCCC.[Br-]` [DDAB, didodecyldimethylammonium bromide], in data set [2], the ATP was 185 pg/mL and 291 pg/mL; the “Effectiveness against bacteria in the stationary phase compared with peracetate oxidant” value is recorded as “less effective”. The APB with APB was 3 bottles and 4 bottles. In addition, in the data set on SRB, the SRB is 5 bottles and 6 bottles.
